target: T1, ΔF508-CFTR (Homo sapiens, UniProt P13569, DEL508-508); assay: hBE equivalent current (Ieq) assay; assay type: cell-based; settings: AUC of equivalent chloride current as % of VX-809 (1 uM); compound at 10 uM and VX-809 at 1 uM; primary hBE cells homozygous ΔF508, 24 h treatment
T1 construct: Primary lung epithelial cells homozygous for the Cystic Fibrosis-causing ΔF508 mutation were differentiated for a minimum of 4 weeks; endogenous in cells; host or cells: primary lung (bronchial) epithelial cells (hBE) homozygous for ΔF508, differentiated at an air-liquid interface
T1 sequence (P13569 with tags, fused parts or gaps DEL508-508): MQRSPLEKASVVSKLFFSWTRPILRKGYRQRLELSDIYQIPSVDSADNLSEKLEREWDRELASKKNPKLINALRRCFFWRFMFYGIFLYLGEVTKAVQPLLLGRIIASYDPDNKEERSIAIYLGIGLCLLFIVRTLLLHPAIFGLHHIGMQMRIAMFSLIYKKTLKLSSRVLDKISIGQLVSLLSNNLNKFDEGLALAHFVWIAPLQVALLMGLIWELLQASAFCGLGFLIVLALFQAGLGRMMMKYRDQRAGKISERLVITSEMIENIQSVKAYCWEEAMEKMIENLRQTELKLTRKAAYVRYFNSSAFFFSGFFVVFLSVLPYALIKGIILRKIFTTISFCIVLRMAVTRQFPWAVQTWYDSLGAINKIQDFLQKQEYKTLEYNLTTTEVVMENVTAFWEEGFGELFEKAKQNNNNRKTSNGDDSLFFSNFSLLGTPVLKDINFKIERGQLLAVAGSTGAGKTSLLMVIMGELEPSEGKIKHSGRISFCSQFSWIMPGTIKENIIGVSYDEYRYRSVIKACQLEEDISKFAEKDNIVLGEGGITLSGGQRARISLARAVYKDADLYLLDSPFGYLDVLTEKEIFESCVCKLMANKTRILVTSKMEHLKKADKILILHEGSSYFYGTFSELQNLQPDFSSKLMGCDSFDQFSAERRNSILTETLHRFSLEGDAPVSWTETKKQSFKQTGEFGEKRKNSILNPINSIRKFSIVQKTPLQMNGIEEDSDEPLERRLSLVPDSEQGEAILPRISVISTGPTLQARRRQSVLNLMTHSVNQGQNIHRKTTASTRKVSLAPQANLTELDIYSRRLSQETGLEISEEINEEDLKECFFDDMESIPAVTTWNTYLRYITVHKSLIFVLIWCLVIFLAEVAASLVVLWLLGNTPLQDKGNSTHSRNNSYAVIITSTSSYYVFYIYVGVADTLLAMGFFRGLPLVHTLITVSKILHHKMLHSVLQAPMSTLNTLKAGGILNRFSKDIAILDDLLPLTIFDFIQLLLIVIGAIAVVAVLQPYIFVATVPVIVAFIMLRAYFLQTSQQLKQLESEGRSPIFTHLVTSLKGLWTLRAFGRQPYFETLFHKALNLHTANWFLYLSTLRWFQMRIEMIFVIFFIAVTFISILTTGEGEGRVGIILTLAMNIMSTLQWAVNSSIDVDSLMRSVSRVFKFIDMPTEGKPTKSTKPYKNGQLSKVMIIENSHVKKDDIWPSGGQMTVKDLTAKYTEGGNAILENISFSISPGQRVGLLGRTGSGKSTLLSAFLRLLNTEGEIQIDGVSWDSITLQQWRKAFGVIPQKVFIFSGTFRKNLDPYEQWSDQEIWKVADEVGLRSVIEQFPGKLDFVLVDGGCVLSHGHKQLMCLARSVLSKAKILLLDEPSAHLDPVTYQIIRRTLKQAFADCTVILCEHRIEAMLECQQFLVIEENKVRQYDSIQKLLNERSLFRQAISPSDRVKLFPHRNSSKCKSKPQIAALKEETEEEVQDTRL
Method: ii. hBE Equivalent Current (Ieq) Assay Primary lung epithelial cells homozygous for the Cystic Fibrosis-causing ΔF508 mutation were differentiated for a minimum of 4 weeks in an air-liquid interface on Costar 24 well HTS filter plates prior to the equivalent current (Ieq) measurements. Cells were apically mucus-washed for 30 minutes 24 h prior to treatment with compounds. The basolateral media was removed and replaced with media containing the compound of interest diluted to its final concentration from DMSO stocks. Treated cells were incubated at 37° C. and 5% CO2 for 24 hours. At the end of the treatment period, the media was changed to the Ieq experimental solution for 30 minutes before the experiment and plates are maintained in a CO2-free incubator during this period. The plates containing the cells were then placed in pre-warmed heating blocks at 36° C.±0.5 for 15 minutes before measurements are taken. The transepithelial voltage (VT) and conductance (GT) were measured using a custom 24 channel current clamp (TECC-24) with 24 well electrode manifold. The Ieq assay measurements were made following additions with standardized time periods: 1. The baseline VT and GT values were measured for approximately 20 minutes. 2. Benzamil was added to block ENaC for 15 minutes. 3. Forskolin plus VX-770 were added to maximally activate ΔF508-CFTR for 27 minutes. 4. Bumetanide was added to inhibit the NaK2Cl cotransporter and shut-off secretion of chloride. The activity data captured was the area under the curve (AUC) for the traces of the equivalent chloride current. The AUC was collected from the time of the forskolin/VX-770 addition until the inhibition by bumetanide addition. Correction in response to compound treatment was scored as the increase in the AUC for compound-treated samples over that of vehicle-treated samples. (** indicates activity ≥200% of VX-809 (1 uM) with compound at 10 uM and VX-809 at 1 uM; * indicates activity 100-200% of VX-809 (1 uM) with compound at 10 uM and VX-809 at 1 uM. ^## indicates activity ≥200% of VX-809 (3 uM) with compound at 10 uM and VX-809 at 3 uM; ^# indicates activity 100-200% of VX-809 (3 uM) with compound at 10 uM and VX-809 at 3 uM.

SMILES	Ieq activity
CC(O)c1nnc(NS(=O)(=O)CCNC(=O)c2cc(-c3ccccc3)on2)s1 (stereo in doubt) [Compound B8, (S)—N-(2-(N-(5-(1-hydroxyethyl)-1,3,4-thiadiazol-2-yl)sulfamoyl)ethyl)-5-phenylisoxazole-3-carboxamide]	* (activity 100-200% of VX-809 (1 uM) with compound at 10 uM and VX-809 at 1 uM)
CC(O)c1nnc(NS(=O)(=O)CCNC(=O)c2cc(-c3ccccc3)on2)s1 (stereo in doubt) [Compound B9, (R)—N-(2-(N-(5-(1-hydroxyethyl)-1,3,4-thiadiazol-2-yl)sulfamoyl)ethyl)-5-phenylisoxazole-3-carboxamide]	* (activity 100-200% of VX-809 (1 uM) with compound at 10 uM and VX-809 at 1 uM)
O=C(NCCCNS(=O)(=O)c1ncc[nH]1)c1cc(-c2ccccc2)on1 [Compound B1]	** (activity ≥200% of VX-809 (1 uM) with compound at 10 uM and VX-809 at 1 uM)
CN(CCCNC(=O)c1cc(-c2ccccc2)on1)S(=O)(=O)c1ncc[nH]1 [Compound B2, N-(3-(N-methyl-1H-imidazole-2-sulfonamido)propyl)-5-phenylisoxazole-3-carboxamide]	** (activity ≥200% of VX-809 (1 uM) with compound at 10 uM and VX-809 at 1 uM)
O=C(NCCNS(=O)(=O)c1cc(CO)n[nH]1)c1cc(-c2ccccc2)on1 [Compound B3, N-(2-((3-(hydroxymethyl)-1H-pyrazole)-5-sulfonamido)ethyl)-5-phenylisoxazole-3-carboxamide]	* (activity 100-200% of VX-809 (1 uM) with compound at 10 uM and VX-809 at 1 uM)
O=C(NCCCNS(=O)(=O)c1cc(CO)n[nH]1)c1cc(-c2ccccc2)on1 [Compound B4, N-(3-((3-(hydroxymethyl)-1H-pyrazole)-5-sulfonamido)propyl)-5-phenylisoxazole-3-carboxamide]	** (activity ≥200% of VX-809 (1 uM) with compound at 10 uM and VX-809 at 1 uM)
O=C(NCCCNS(=O)(=O)c1ncccn1)c1cc(-c2ccccc2)on1 [Compound B5, 5-phenyl-N-(3-(pyrimidine-2-sulfonamido)propyl)isoxazole-3-carboxamide]	** (activity ≥200% of VX-809 (1 uM) with compound at 10 uM and VX-809 at 1 uM)
O=C(NCCCNS(=O)(=O)c1ccccn1)c1cc(-c2ccccc2)on1 [Compound B6, 5-phenyl-N-(3-(pyridine-2-sulfonamido)propyl)isoxazole-3-carboxamide]	** (activity ≥200% of VX-809 (1 uM) with compound at 10 uM and VX-809 at 1 uM)
Nc1cc(CO)nn1S(=O)(=O)CCNC(=O)c1cc(-c2ccccc2)on1 [Compound B7, N-(2-((5-amino-3-(hydroxymethyl)-1H-pyrazol-1-yl)sulfonyl)ethyl)-5-phenylisoxazole-3-carboxamide]	* (activity 100-200% of VX-809 (1 uM) with compound at 10 uM and VX-809 at 1 uM)
CN(CCCNC(=O)c1cc(-c2ccccc2)on1)S(=O)(=O)c1nccn1C [Compound B10, N-(3-((N-1-dimethyl-1H-imidazole)-2-sulfonamido)propyl)-5-phenylisoxazole-3-carboxamide]	* (activity 100-200% of VX-809 (1 uM) with compound at 10 uM and VX-809 at 1 uM)
COCn1ccnc1S(=O)(=O)N(C)CCCNC(=O)c1cc(-c2ccccc2)on1 [Compound B11, N-(3-((1-(methoxymethyl)-N-methyl-1H-imidazole)-2-sulfonamido)propyl)-5-phenylisoxazole-3-carboxamide]	** (activity ≥200% of VX-809 (1 uM) with compound at 10 uM and VX-809 at 1 uM)

— patent publication US10017503B2, “Compounds, compositions, and methods for increasing CFTR activity” (Proteostasis Therapeutics, Inc., priority 2014, dated 2018)
